Reference: patent US11345666B2, “Phenyl and pyridinyl substituted imidazoles as modulators of RORγT” (Janssen Pharmaceutica NV, priority 2018, dated 2022)

Biological target: human RORγt ligand binding domain (RORγt LBD) (Homo sapiens (Human), UniProt P51449)
Assay: RORγt ThermoFluor assay
Method in brief: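 Thermal shift of His-tagged human RORγt LBD (0.065 mg/mL) with 60 μM 1,8-ANS in 100 mM Hepes pH 7.0, 10 mM NaCl, 2.5 mM GSH, 0.002% Tween-20, heated at 1° C./min. Compounds in 1:2 series from a 10 mM DMSO stock; KD estimated from ΔTm using protein unfolding thermodynamics.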

Chain of human RORγt ligand binding domain (RORγt LBD) (P51449 other isoform, or with tags, fused parts or gaps): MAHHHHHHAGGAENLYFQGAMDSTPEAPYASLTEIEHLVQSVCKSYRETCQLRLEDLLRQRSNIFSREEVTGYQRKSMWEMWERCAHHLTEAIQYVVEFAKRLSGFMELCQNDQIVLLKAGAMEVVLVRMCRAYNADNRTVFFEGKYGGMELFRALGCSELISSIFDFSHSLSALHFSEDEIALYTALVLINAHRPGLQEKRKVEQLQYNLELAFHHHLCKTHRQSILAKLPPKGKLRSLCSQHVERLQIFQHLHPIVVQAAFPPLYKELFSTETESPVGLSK

`CCc1nc(C(=O)NC[C@H]2CC[C@H](S(C)(=O)=O)CC2)c(Cl)n1-c1ccc(CC(C)C(F)(F)F)cc1OC` (single isomer, unassigned) [Example 6, 5-Chloro-2-ethyl-1-((1S*)-2-methoxy-4-(3,3,3-trifluoro-2-methylpropyl)phenyl)-N-(((1r,4S)-4-(methylsulfonyl)cyclohexyl)methyl)-1H-imidazole-4-carboxamide] was tested, and the Kd was 0.17 nM.
For `CCc1nc(C(=O)NC[C@H]2CC[C@H](S(C)(=O)=O)CC2)c(C)n1-c1ccc(CC(C)C(F)(F)F)cc1OC` (single isomer, unassigned) [Example 7], the Kd was 1 nM.
Compound `CCc1nc(C(=O)NC[C@H]2CC[C@H](S(C)(=O)=O)CC2)c(Cl)n1-c1ncc(CC(C)(C)C(F)(F)F)cc1OC(F)F` [Example 2, 5-Chloro-1-(3-(difluoromethoxy)-5-(3,3,3-trifluoro-2,2-dimethylpropyl)pyridin-2-yl)-2-ethyl-N-((4-(methylsulfonyl)cyclohexyl)methyl)-1H-imidazole-4-carboxamide] has a Kd of 2.4 nM.
`CCc1nc(C(=O)NC[C@H]2CC[C@H](S(C)(=O)=O)CC2)c(Cl)n1-c1ccc(N[C@H](C)C(F)(F)F)cc1OC` [Example 3, 5-Chloro-2-ethyl-1-(2-methoxy-4-(((R)-1,1,1-trifluoropropan-2-yl)amino)phenyl)-N-(((1r,4R)-4-(methylsulfonyl)cyclohexyl)methyl)-1H-imidazole-4-carboxamide] gave a Kd of 3.5 nM.
Work on `CCc1nc(C(=O)NC[C@H]2CC[C@H](S(C)(=O)=O)CC2)c(F)n1-c1ccc(N[C@H](C)C(F)(F)F)cc1OC` [Example 12, 2-Ethyl-5-fluoro-1-(2-methoxy-4-(((R)-1,1,1-trifluoropropan-2-yl)amino)phenyl)-N-(((1r,4R)-4-(methylsulfonyl)cyclohexyl)methyl)-1H-imidazole-4-carboxamide] yielded a Kd of 12 nM.
`CCc1nc(C(=O)NC[C@H]2CC[C@H](S(C)(=O)=O)CC2)c(Cl)n1-c1ccc(CCC(F)(F)F)cc1F` [Example 22, 5-Chloro-2-ethyl-1-(2-fluoro-4-(3,3,3-trifluoropropyl)phenyl)-N-(((1r,4r)-4-(methylsulfonyl)cyclohexyl)methyl)-1H-imidazole-4-carboxamide] showed a Kd of 20 nM.
Work on `[2H]C([2H])([2H])Oc1cc(CC(C)(C)C(F)(F)F)ccc1-n1c(CC)nc(C(=O)NC[C@H]2CC[C@H](S(C)(=O)=O)CC2)c1C#N` [Example 27, 5-Cyano-2-ethyl-1-(2-(methoxy-d3)-4-(3,3,3-trifluoro-2,2-dimethylpropyl)phenyl)-N-(((1r,4r)-4-(methylsulfonyl)cyclohexyl)methyl)-1H-imidazole-4-carboxamide] yielded a Kd of 0.76 nM.
With `CCc1nc(C(=O)NC[C@H]2CC[C@H](S(C)(=O)=O)CC2)c(C#N)n1-c1ccc(CC(C)(C)C(F)(F)F)cc1OC(F)F` [Example 36, 5-Cyano-1-(2-(difluoromethoxy)-4-(3,3,3-trifluoro-2,2-dimethylpropyl)phenyl)-2-ethyl-N-(((1r,4r)-4-(methylsulfonyl)cyclohexyl)methyl)-1H-imidazole-4-carboxamide] the Kd was 1.6 nM.
Work on `CCc1nc(C(=O)NC[C@]2(O)CC[C@@H](S(C)(=O)=O)CC2)c(Cl)n1-c1c(F)cc(CC(C)C)cc1F` [Example 83, 5-Chloro-1-(2,6-difluoro-4-isobutylphenyl)-2-ethyl-N-(((1s,4s)-1-hydroxy-4-(methylsulfonyl)cyclohexyl)methyl)-1H-imidazole-4-carboxamide] yielded a Kd of 2.6 nM.
For `CCc1nc(C(=O)NC[C@]2(O)CC[C@@H](S(C)(=O)=O)CC2)c(Cl)n1-c1ccc(CC(C(F)(F)F)C(F)(F)F)cc1F` [Example 100, 5-Chloro-2-ethyl-1-(2-fluoro-4-(3,3,3-trifluoro-2-(trifluoromethyl)propyl)phenyl)-N-(((1s,4s)-1-hydroxy-4-(methylsulfonyl)cyclohexyl)methyl)-1H-imidazole-4-carboxamide], the Kd was 2.1 nM.
With `CCc1nc(C(=O)NC[C@]2(O)CC[C@@H](S(C)(=O)=O)CC2)c(C)n1-c1ccc(CC(C(F)(F)F)C(F)(F)F)cc1F` [Example 109, 2-Ethyl-1-(2-fluoro-4-(3,3,3-trifluoro-2-(trifluoromethyl)propyl)phenyl)-N-(((1s,4s)-1-hydroxy-4-(methylsulfonyl)cyclohexyl)methyl)-5-methyl-1H-imidazole-4-carboxamide] the Kd was 6.5 nM.
In the case of `CCc1nc(C(=O)NC[C@]2(O)CC[C@@H](S(C)(=O)=O)CC2)c(C#N)n1-c1ccc(CC(C)(C)C(F)(F)F)cc1OC(F)(F)F` [Example 111, 5-Cyano-2-ethyl-N-(((1s,4s)-1-hydroxy-4-(methylsulfonyl)cyclohexyl)methyl)-1-(4-(3,3,3-trifluoro-2,2-dimethylpropyl)-2-(trifluoromethoxy)phenyl)-1H-imidazole-4-carboxamide], the Kd is reported as 24 nM.
